Experimental data taken from ChEMBL document CHEMBL4052772, “Design, synthesis and biological evaluation of novel 4-phenoxyquinoline derivatives containing 3-oxo-3,4-dihydroquinoxaline moiety as c-Met kinase inhibitors” (Bioorg Med Chem, 2017).

How the values were obtained:
[1] = target: Hepatocyte growth factor receptor (Homo sapiens, UniProt P08581); test: Inhibition of c-Met (unknown origin) using poly (Glu, Tyr) 4:1 as substrate after 30 mins by HTRF assay
NCI-H460 = test: Antiproliferative activity against human H460 cells after 72 hrs by MTT assay; settings: NCI-H460, 72 h
MKN-45 = test: cells; settings: Homo sapiens, MKN-45, 72 h
Description: Antiproliferative activity against human MKN45 cells after 72 hrs by MTT assay

A549 = test: cells; settings: Homo sapiens, A549, 72 h
Description: Antiproliferative activity against human A549 cells after 72 hrs by MTT assay

U-87 MG = test: Antiproliferative activity against human U87MG cells after 72 hrs by MTT assay
HT-29 = test: cells; settings: Homo sapiens, HT-29, 72 h
[2] = target: Vascular endothelial growth factor receptor 2 (Homo sapiens, UniProt P35968); test: Inhibition of VEGFR2 (unknown origin) using poly (Glu, Tyr) 4:1 as substrate after 30 mins by HTRF assay
[3] = target: Platelet-derived growth factor receptor alpha (Homo sapiens, UniProt P16234); test: Inhibition of PDGFRalpha (unknown origin) using poly (Glu, Tyr) 4:1 as substrate after 30 mins by HTRF assay
[4] = target: Mast/stem cell growth factor receptor Kit (Homo sapiens, UniProt P10721); test: Inhibition of c-Kit (unknown origin) using poly (Glu, Tyr) 4:1 as substrate after 30 mins by HTRF assay
[5] = target: Macrophage-stimulating protein receptor (Homo sapiens, UniProt Q04912); test: Inhibition of Ron (unknown origin) using poly (Glu, Tyr) 4:1 as substrate after 30 mins by HTRF assay
[6] = target: T1, Receptor-type tyrosine-protein kinase FLT3 (Homo sapiens, UniProt P36888); test: Inhibition of Flt3 (unknown origin) using poly (Glu, Tyr) 4:1 as substrate after 30 mins by HTRF assay
T1 sequence (P36888 whole entry): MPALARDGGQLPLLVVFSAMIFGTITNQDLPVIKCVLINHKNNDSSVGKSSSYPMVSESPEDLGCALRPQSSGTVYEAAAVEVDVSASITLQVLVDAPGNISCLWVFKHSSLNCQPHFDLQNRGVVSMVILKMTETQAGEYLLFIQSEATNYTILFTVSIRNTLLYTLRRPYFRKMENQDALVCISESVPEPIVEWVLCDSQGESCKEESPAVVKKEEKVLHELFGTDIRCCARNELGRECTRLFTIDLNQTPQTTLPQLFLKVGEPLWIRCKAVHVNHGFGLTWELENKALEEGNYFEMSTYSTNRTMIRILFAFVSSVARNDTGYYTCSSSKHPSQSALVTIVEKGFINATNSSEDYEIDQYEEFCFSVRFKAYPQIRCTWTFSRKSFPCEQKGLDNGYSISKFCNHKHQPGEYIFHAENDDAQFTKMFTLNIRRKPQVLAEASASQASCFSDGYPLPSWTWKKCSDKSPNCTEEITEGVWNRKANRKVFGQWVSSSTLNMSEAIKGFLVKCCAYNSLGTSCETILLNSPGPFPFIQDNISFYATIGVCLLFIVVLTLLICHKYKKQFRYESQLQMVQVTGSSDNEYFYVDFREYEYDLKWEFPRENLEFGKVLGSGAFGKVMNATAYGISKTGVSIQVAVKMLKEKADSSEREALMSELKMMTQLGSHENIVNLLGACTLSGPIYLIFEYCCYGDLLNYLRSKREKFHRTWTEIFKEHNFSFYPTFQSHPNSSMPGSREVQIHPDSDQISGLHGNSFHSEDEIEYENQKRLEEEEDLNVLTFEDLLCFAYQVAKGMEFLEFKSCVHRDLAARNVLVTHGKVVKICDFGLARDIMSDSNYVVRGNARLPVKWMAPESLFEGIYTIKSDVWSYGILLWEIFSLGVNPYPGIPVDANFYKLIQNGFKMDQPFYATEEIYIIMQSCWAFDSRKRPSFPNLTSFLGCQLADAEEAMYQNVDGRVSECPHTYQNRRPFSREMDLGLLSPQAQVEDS

[7] = target: ALK tyrosine kinase receptor (Homo sapiens, UniProt Q9UM73); test: Inhibition of ALK (unknown origin) using poly (Glu, Tyr) 4:1 as substrate after 30 mins by HTRF assay
[8] = target: Epidermal growth factor receptor (Homo sapiens, UniProt P00533); test: Inhibition of EGFR (unknown origin) using poly (Glu, Tyr) 4:1 as substrate after 30 mins by HTRF assay

Chain of Hepatocyte growth factor receptor (P08581 whole entry): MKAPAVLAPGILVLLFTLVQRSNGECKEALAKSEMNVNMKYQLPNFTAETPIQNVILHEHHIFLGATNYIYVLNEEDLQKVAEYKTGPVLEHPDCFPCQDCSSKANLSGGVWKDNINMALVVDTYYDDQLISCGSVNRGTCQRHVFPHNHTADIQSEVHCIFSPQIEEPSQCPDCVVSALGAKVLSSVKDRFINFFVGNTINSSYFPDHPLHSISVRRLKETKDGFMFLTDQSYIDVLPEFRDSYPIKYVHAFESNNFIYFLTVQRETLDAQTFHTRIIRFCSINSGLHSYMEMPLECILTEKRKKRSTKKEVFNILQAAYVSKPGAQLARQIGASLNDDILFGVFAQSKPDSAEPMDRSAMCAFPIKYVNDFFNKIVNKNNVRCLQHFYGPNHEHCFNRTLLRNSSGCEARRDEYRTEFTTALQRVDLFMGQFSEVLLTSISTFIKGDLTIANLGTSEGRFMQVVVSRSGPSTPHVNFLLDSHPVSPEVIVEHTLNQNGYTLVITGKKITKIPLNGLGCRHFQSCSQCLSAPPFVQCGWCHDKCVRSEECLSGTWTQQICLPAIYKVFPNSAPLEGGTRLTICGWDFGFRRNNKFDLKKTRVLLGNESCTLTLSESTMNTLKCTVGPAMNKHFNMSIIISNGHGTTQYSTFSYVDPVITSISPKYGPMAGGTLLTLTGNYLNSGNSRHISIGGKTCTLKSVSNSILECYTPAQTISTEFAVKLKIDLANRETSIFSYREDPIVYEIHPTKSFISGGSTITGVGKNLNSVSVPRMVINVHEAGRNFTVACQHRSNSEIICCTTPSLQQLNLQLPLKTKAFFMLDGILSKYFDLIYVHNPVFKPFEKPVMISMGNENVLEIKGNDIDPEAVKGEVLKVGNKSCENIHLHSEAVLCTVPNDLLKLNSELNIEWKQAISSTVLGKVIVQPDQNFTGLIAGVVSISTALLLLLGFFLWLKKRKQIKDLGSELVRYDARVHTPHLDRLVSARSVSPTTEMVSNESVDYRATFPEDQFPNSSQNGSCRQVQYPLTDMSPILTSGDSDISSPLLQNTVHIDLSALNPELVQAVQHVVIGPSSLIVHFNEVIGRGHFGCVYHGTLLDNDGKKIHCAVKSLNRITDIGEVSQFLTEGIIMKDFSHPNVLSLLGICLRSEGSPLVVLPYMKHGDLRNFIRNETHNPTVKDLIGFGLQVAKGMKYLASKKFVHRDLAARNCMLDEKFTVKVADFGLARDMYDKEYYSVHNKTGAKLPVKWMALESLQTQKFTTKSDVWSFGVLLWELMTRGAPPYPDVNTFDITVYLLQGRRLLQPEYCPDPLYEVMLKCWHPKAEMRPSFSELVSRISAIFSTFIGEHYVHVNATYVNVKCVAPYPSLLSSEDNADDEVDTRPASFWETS
Chain of ALK tyrosine kinase receptor (Q9UM73 whole entry): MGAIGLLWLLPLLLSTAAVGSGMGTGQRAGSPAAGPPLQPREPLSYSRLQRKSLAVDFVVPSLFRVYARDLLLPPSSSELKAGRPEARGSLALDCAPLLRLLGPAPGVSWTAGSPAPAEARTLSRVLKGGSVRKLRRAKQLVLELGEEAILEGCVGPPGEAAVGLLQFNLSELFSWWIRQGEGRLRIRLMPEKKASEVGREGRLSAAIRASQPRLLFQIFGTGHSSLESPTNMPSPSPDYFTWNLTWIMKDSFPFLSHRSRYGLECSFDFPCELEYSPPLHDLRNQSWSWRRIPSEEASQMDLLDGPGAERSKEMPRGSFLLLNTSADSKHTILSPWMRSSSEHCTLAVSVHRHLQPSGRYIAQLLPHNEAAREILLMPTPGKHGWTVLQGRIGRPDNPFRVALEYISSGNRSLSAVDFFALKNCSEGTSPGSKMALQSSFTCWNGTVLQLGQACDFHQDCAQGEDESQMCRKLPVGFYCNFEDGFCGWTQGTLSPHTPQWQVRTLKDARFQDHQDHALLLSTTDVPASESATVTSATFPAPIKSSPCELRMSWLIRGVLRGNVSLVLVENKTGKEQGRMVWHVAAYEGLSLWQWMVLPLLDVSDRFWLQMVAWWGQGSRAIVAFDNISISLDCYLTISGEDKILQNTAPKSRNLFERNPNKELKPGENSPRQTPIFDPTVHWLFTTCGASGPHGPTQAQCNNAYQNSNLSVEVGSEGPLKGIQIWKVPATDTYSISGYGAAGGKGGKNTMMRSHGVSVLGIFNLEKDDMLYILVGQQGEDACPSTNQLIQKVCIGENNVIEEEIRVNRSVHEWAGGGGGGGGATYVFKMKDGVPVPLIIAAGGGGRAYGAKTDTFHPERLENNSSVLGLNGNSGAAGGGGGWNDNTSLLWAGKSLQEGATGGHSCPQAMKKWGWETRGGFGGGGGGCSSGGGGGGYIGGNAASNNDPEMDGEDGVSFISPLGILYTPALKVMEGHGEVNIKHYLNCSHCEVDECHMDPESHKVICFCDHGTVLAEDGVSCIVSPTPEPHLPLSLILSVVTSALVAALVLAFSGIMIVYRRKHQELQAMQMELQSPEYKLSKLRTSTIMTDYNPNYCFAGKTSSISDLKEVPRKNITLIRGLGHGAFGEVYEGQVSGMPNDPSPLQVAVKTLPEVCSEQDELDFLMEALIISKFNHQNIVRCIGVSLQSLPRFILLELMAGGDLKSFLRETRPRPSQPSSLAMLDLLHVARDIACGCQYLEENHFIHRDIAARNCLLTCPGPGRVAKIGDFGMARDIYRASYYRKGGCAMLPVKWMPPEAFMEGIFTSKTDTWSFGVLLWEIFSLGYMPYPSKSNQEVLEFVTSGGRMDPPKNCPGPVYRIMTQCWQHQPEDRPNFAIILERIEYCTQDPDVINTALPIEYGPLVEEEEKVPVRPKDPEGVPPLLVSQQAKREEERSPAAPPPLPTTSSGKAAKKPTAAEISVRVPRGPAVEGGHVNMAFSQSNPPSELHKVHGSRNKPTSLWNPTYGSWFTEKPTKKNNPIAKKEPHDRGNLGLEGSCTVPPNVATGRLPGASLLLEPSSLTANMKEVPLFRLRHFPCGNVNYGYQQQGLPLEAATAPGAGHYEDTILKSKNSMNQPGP
Chain of Vascular endothelial growth factor receptor 2 (P35968 whole entry): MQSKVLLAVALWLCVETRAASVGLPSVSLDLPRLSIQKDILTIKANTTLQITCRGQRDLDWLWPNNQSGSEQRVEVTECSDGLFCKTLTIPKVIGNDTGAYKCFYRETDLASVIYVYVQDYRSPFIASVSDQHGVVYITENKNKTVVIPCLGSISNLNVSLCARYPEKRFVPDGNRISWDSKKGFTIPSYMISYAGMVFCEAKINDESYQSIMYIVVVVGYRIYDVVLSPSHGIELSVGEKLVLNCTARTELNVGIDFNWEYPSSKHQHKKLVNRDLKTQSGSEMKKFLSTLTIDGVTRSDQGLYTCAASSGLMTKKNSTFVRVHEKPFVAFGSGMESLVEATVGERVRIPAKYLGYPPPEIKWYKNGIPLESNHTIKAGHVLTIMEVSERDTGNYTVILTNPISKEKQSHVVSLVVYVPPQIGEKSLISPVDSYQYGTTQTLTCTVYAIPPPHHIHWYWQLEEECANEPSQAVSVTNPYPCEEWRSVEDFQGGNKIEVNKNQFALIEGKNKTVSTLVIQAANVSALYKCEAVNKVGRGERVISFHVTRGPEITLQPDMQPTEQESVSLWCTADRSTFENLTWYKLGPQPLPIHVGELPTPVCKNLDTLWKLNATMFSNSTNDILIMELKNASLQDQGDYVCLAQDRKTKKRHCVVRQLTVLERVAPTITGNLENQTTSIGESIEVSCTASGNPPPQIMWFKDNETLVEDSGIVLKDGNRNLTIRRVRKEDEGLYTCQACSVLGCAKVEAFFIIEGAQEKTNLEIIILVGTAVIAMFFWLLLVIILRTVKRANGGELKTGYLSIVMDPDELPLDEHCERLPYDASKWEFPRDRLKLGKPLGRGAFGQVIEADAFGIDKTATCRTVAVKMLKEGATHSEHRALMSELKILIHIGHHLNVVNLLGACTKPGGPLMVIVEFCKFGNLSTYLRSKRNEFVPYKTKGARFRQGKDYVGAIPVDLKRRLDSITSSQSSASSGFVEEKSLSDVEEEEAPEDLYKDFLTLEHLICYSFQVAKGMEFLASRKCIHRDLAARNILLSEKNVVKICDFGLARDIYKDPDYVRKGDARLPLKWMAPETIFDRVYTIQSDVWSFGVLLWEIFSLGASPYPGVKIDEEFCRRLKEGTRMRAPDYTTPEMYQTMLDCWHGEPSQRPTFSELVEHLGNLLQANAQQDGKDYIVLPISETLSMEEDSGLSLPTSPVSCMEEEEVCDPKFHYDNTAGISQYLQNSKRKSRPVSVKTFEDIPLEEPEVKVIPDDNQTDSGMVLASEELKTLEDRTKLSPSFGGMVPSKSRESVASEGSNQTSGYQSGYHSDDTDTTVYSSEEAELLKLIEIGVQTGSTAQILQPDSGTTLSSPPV

| Compound | IC50 [1] | IC50 (NCI-H460) | IC50 (MKN-45) | IC50 (A549) | IC50 (U-87 MG) | IC50 (HT-29) | IC50 [2] | IC50 [3] | IC50 [4] | IC50 [5] | IC50 [6] | IC50 [7] | IC50 [8] |
| --- | --- | --- | --- | --- | --- | --- | --- | --- | --- | --- | --- | --- | --- |
| COc1cc2c(Oc3ccc(NC(=O)c4nc5ccccc5n(-c5ccc(F)cc5)c4=O)cc3F)ccnc2cc1OCCCN1CCCCC1 | 0.00803 µM | – | – | – | – | – | – | – | – | – | – | – | – |
| COc1cc2c(Oc3ccc(NC(=O)c4nc5ccccc5n(-c5ccc(C)cc5)c4=O)cc3F)ccnc2cc1OCCCN1CCOCC1 | – | 1.12 µM | 0.58 µM | 2.16 µM | 4.17 µM | 1.03 µM | – | – | – | – | – | – | – |
| COc1cc2c(Oc3ccc(NC(=O)c4nc5ccccc5n(-c5ccc(F)cc5)c4=O)cc3F)ccnc2cc1OCCCN1CCN(C)CC1 | 0.0009 µM | – | – | – | – | – | 0.152 µM | 0.0191 µM | 0.00245 µM | 0.0826 µM | 0.269 µM | 2.84 µM | 0.981 µM |
| COc1cc2c(Oc3ccc(NC(=O)c4nc5ccccc5n(-c5ccccc5Cl)c4=O)cc3F)ccnc2cc1OCCCN1CCOCC1 | 0.00323 µM | 0.14 µM | 0.025 µM | 0.05 µM | 1.5 µM | 0.15 µM | – | – | – | – | – | – | – |
| COc1cc2c(Oc3ccc(NC(=O)c4nc5ccccc5n(-c5ccc(Cl)cc5)c4=O)cc3F)ccnc2cc1OCCCN1CCOCC1 | 0.00676 µM | 0.28 µM | 0.029 µM | 0.042 µM | 1.06 µM | 0.16 µM | – | – | – | – | – | – | – |
| COc1ccc(-n2c(=O)c(C(=O)Nc3ccc(Oc4ccnc5cc(OCCCN6CCOCC6)c(OC)cc45)c(F)c3)nc3ccccc32)cc1 | – | 1.85 µM | 0.66 µM | 1.72 µM | > 32 µM | 0.69 µM | – | – | – | – | – | – | – |
| COc1ccc(-n2c(=O)c(C(=O)Nc3ccc(Oc4ccnc5cc(OCCCN6CCOCC6)c(OC)cc45)c(F)c3)nc3ccccc32)c(OC)c1 | – | 2.05 µM | 0.86 µM | 5.11 µM | 16.2 µM | 1.29 µM | – | – | – | – | – | – | – |
| COc1cc2c(Oc3ccc(NC(=O)c4nc5ccccc5n(-c5ccc(Br)cc5)c4=O)cc3F)ccnc2cc1OCCCN1CCOCC1 | – | 0.21 µM | 0.11 µM | 0.32 µM | 1.17 µM | 0.17 µM | – | – | – | – | – | – | – |
| COc1cc2c(Oc3ccc(NC(=O)c4nc5ccccc5n(-c5ccc(Cl)cc5Cl)c4=O)cc3F)ccnc2cc1OCCCN1CCOCC1 | – | 0.64 µM | 0.075 µM | 0.17 µM | 5.04 µM | 0.59 µM | – | – | – | – | – | – | – |
| COc1cc2c(Oc3ccc(NC(=O)c4nc5ccccc5n(-c5ccc(OC(F)(F)F)cc5)c4=O)cc3F)ccnc2cc1OCCCN1CCOCC1 | – | 0.29 µM | 0.26 µM | 0.33 µM | 1.22 µM | 0.2 µM | – | – | – | – | – | – | – |
| COc1cc2c(Oc3ccc(NC(=O)c4nc5ccccc5n(-c5ccc(F)cc5)c4=O)cc3F)ccnc2cc1OCCCN1CCC(C)CC1 | 0.00357 µM | – | – | – | – | – | – | – | – | – | – | – | – |
| COc1cc2c(Oc3ccc(NC(=O)c4nc5ccccc5n(-c5ccccc5F)c4=O)cc3F)ccnc2cc1OCCCN1CCOCC1 | 0.00452 µM | 0.23 µM | 0.029 µM | 0.033 µM | 0.65 µM | 0.17 µM | – | – | – | – | – | – | – |
| COc1cc2c(Oc3ccc(NC(=O)c4nc5ccccc5n(-c5cccc(F)c5)c4=O)cc3F)ccnc2cc1OCCCN1CCOCC1 | – | 0.4 µM | 0.39 µM | 0.31 µM | 1.85 µM | 0.2 µM | – | – | – | – | – | – | – |
| COc1cc2c(Oc3ccc(NC(=O)c4nc5ccccc5n(-c5ccccc5C(F)(F)F)c4=O)cc3F)ccnc2cc1OCCCN1CCOCC1 | – | 0.28 µM | 0.56 µM | 0.22 µM | 1.78 µM | 0.19 µM | – | – | – | – | – | – | – |
| COc1cc2c(Oc3ccc(NC(=O)c4nc5ccccc5n(-c5ccc(F)cc5)c4=O)cc3F)ccnc2cc1OCCCN1CCOCC1 | 0.00235 µM | 0.14 µM | 0.026 µM | 0.03 µM | 0.81 µM | 0.11 µM | – | – | – | – | – | – | – |
| COc1cc2c(Oc3ccc(NC(=O)c4nc5ccccc5n(-c5ccccc5)c4=O)cc3F)ccnc2cc1OCCCN1CCOCC1 | – | 1.04 µM | 0.082 µM | 0.41 µM | 1.72 µM | 0.2 µM | – | – | – | – | – | – | – |
| COc1cc2c(Oc3ccc(NC(=O)c4nc5ccccc5n(-c5cccc(Cl)c5)c4=O)cc3F)ccnc2cc1OCCCN1CCOCC1 | – | 0.53 µM | 0.34 µM | 0.24 µM | 0.98 µM | 0.33 µM | – | – | – | – | – | – | – |
| COc1cc2c(Oc3ccc(NC(=O)c4nc5ccccc5n(-c5ccccc5F)c4=O)cc3F)ccnc2cc1OCCCN1CCC(C)CC1 | 0.0131 µM | – | – | – | – | – | – | – | – | – | – | – | – |
